From ChEMBL document CHEMBL4257449, “New N-(2-phenyl-4-oxo-1,3-thiazolidin-3-yl)-1,2-benzothiazole-3-carboxamides and acetamides as antimicrobial agents” (2017)
In brackets after ≈: the same amount, converted by molar mass.

How the values were obtained:
[1] = tested on: Aspergillus versicolor; assay: Antifungal activity against Aspergillus versicolor ATCC 11730 after 72 hrs by serial dilution method; assay type: functional; settings: ATCC 11730, 72 h
[2] = tested on: Aspergillus ochraceus; assay: Fungicidal activity against Aspergillus ochraceus ATCC 12066 incubated for 72 hrs followed by serial sub-cultivation for 72 hrs and measured after 72 hrs by serial dilution method; assay type: functional
[3] = tested on: Pseudomonas aeruginosa; assay: Bactericidal activity against Pseudomonas aeruginosa ATCC 27853 incubated for 24 hrs followed by serial sub-cultivation and measured after 24 hrs by microdilution method; assay type: functional
[4] = tested on: Salmonella typhimurium; assay: Antibacterial activity against Salmonella typhimurium ATCC 13311 after 24 hrs by microdilution method; assay type: functional, Salmonella enterica subsp. enterica serovar Typhimurium; settings: Salmonella enterica, ATCC 13311, 24 h
[5] = tested on: Micrococcus flavus; assay: Bactericidal activity against Micrococcus flavus ATCC 10240 incubated for 24 hrs followed by serial sub-cultivation and measured after 24 hrs by microdilution method; assay type: functional
[6] = tested on: Aspergillus ochraceus; assay: Antifungal activity against Aspergillus ochraceus ATCC 12066 after 72 hrs by serial dilution method; assay type: functional; settings: ATCC 12066, 72 h
[7] = tested on: Aspergillus fumigatus; assay: Fungicidal activity against Aspergillus fumigatus incubated for 72 hrs followed by serial sub-cultivation for 72 hrs and measured after 72 hrs by serial dilution method; assay type: functional
[8] = tested on: Enterobacter cloacae; assay: Bactericidal activity against Enterobacter cloacae incubated for 24 hrs followed by serial sub-cultivation and measured after 24 hrs by microdilution method; assay type: functional
[9] = tested on: Candida albicans; assay: Antifungal activity against Candida albicans after 72 hrs by serial dilution method; assay type: functional
[10] = tested on: Pseudomonas aeruginosa; assay: Antibacterial activity against Pseudomonas aeruginosa ATCC 27853 after 24 hrs by microdilution method; assay type: functional; settings: ATCC 27853, 24 h
[11] = tested on: Penicillium ochrochloron; assay: Antifungal activity against Penicillium ochrochloron ATCC 9112 after 72 hrs by serial dilution method; assay type: functional; settings: ATCC 9112, 72 h
[12] = tested on: Salmonella typhimurium; assay: Bactericidal activity against Salmonella typhimurium ATCC 13311 incubated for 24 hrs followed by serial sub-cultivation and measured after 24 hrs by microdilution method; assay type: functional, Salmonella enterica subsp. enterica serovar Typhimurium
[13] = tested on: Trichoderma viride; assay: Fungicidal activity against Trichoderma viride IAM 5061 incubated for 72 hrs followed by serial sub-cultivation for 72 hrs and measured after 72 hrs by serial dilution method; assay type: functional
[14] = tested on: Aspergillus fumigatus; assay: Antifungal activity against Aspergillus fumigatus after 72 hrs by serial dilution method; assay type: functional
[15] = tested on: Listeria monocytogenes; assay: Bactericidal activity against Listeria monocytogenes NCTC 7973 incubated for 24 hrs followed by serial sub-cultivation and measured after 24 hrs by microdilution method; assay type: functional
[16] = tested on: Escherichia coli; assay: Bactericidal activity against Escherichia coli ATCC 35210 incubated for 24 hrs followed by serial sub-cultivation and measured after 24 hrs by microdilution method; assay type: functional
[17] = tested on: Talaromyces funiculosus; assay: Antifungal activity against Penicillium funiculosum ATCC 36839 after 72 hrs by serial dilution method; assay type: functional; settings: ATCC 36839, 72 h
[18] = tested on: Candida albicans; assay: Fungicidal activity against Candida albicans incubated for 72 hrs followed by serial sub-cultivation for 72 hrs and measured after 72 hrs by serial dilution method; assay type: functional
[19] = tested on: Micrococcus flavus; assay: Antibacterial activity against Micrococcus flavus ATCC 10240 after 24 hrs by microdilution method; assay type: functional; settings: ATCC 10240, 24 h
[20] = tested on: Talaromyces funiculosus; assay: Fungicidal activity against Penicillium funiculosum ATCC 36839 incubated for 72 hrs followed by serial sub-cultivation for 72 hrs and measured after 72 hrs by serial dilution method; assay type: functional
[21] = tested on: Bacillus cereus; assay: Antibacterial activity against Bacillus cereus after 24 hrs by microdilution method; assay type: functional
[22] = tested on: Staphylococcus aureus; assay: Antibacterial activity against Staphylococcus aureus ATCC 6538 after 24 hrs by microdilution method; assay type: functional; settings: ATCC 6538, 24 h
[23] = tested on: Staphylococcus aureus; assay: Bactericidal activity against Staphylococcus aureus ATCC 6538 incubated for 24 hrs followed by serial sub-cultivation and measured after 24 hrs by microdilution method; assay type: functional
[24] = tested on: Aspergillus versicolor; assay: Fungicidal activity against Aspergillus versicolor ATCC 11730 incubated for 72 hrs followed by serial sub-cultivation for 72 hrs and measured after 72 hrs by serial dilution method; assay type: functional
[25] = tested on: Enterobacter cloacae; assay: Antibacterial activity against Enterobacter cloacae after 24 hrs by microdilution method; assay type: functional
[26] = tested on: Penicillium ochrochloron; assay: Fungicidal activity against Penicillium ochrochloron ATCC 9112 incubated for 72 hrs followed by serial sub-cultivation for 72 hrs and measured after 72 hrs by serial dilution method; assay type: functional
[27] = tested on: Aspergillus niger; assay: Fungicidal activity against Aspergillus niger ATCC 6275 incubated for 72 hrs followed by serial sub-cultivation for 72 hrs and measured after 72 hrs by serial dilution method; assay type: functional
[28] = tested on: Escherichia coli; assay: Antibacterial activity against Escherichia coli ATCC 35210 after 24 hrs by microdilution method; assay type: functional; settings: ATCC 35210, 24 h
[29] = tested on: Aspergillus niger; assay: Antifungal activity against Aspergillus niger ATCC 6275 after 72 hrs by serial dilution method; assay type: functional; settings: ATCC 6275, 72 h
[30] = tested on: Trichoderma viride; assay: Antifungal activity against Trichoderma viride IAM 5061 after 72 hrs by serial dilution method; assay type: functional; settings: IAM 5061, 72 h
[31] = tested on: Bacillus cereus; assay: Bactericidal activity against Bacillus cereus incubated for 24 hrs followed by serial sub-cultivation and measured after 24 hrs by microdilution method; assay type: functional
[32] = tested on: Listeria monocytogenes; assay: Antibacterial activity against Listeria monocytogenes NCTC 7973 after 24 hrs by microdilution method; assay type: functional; settings: NCTC 7973, 24 h

Structure (SMILES)	MIC [1] [µM]	MFC99.5 [2] [×10⁻² umol/ml]	MBC99.5 [3] [×10⁻² umol/ml]	MIC [4] [µM]	MBC99.5 [5] [×10⁻² umol/ml]	MIC [6] [µM]	MFC99.5 [7] [×10⁻² umol/ml]	MBC99.5 [8] [×10⁻² umol/ml]	MIC [9] [µM]	MIC [10] [µM]	MIC [11] [µM]	MBC99.5 [12] [×10⁻² umol/ml]	MFC99.5 [13] [×10⁻² umol/ml]	MIC [14] [µM]	MBC99.5 [15] [×10⁻² umol/ml]	MBC99.5 [16] [×10⁻² umol/ml]	MIC [17] [µM]	MFC99.5 [18] [×10⁻² umol/ml]	MIC [19] [µM]	MFC99.5 [20] [×10⁻² umol/ml]	other results
O=C(NN1C(=O)CSC1c1ccccc1F)c1nsc2ccccc12 (stereo unspecified)	214 (≈ 79.9 µg/mL)	21.4	40.2	214 (≈ 79.9 µg/mL)	40.2	80 (≈ 29.9 µg/mL)	21.4	40.2	107 (≈ 40 µg/mL)	214 (≈ 79.9 µg/mL)	54 (≈ 20.2 µg/mL)	40.2	5.4	107 (≈ 40 µg/mL)	40.2	40.2	107 (≈ 40 µg/mL)	21.4	295 (≈ 110 µg/mL)	21.4	MIC [21]: 214 µM (≈ 79.9 µg/mL); MIC [22]: 214 µM (≈ 79.9 µg/mL); MBC99.5 [23]: 40.2 ×10⁻² umol/ml; MFC99.5 [24]: 40.2 ×10⁻² umol/ml; MIC [25]: 214 µM (≈ 79.9 µg/mL); MFC99.5 [26]: 10.7 ×10⁻² umol/ml; MFC99.5 [27]: 21.4 ×10⁻² umol/ml; MIC [28]: 214 µM (≈ 79.9 µg/mL); MIC [29]: 107 µM (≈ 40 µg/mL); MIC [30]: 27 µM (≈ 10.1 µg/mL); MBC99.5 [31]: 40.2 ×10⁻² umol/ml; MIC [32]: 214 µM (≈ 79.9 µg/mL)
O=C(NN1C(=O)CSC1c1c(Cl)cccc1Cl)c1nsc2ccccc12 (stereo unspecified)	189 (≈ 80.2 µg/mL)	18.9	39.5	395 (≈ 168 µg/mL)	79	94.5 (≈ 40.1 µg/mL)	79	79	395 (≈ 168 µg/mL)	189 (≈ 80.2 µg/mL)	395 (≈ 168 µg/mL)	79	18.9	395 (≈ 168 µg/mL)	79	79	395 (≈ 168 µg/mL)	79	543 (≈ 230 µg/mL)	79	MIC [21]: 395 µM (≈ 168 µg/mL); MIC [22]: 189 µM (≈ 80.2 µg/mL); MBC99.5 [23]: 39.5 ×10⁻² umol/ml; MFC99.5 [24]: 70.8 ×10⁻² umol/ml; MIC [25]: 543 µM (≈ 230 µg/mL); MFC99.5 [26]: 79 ×10⁻² umol/ml; MFC99.5 [27]: 79 ×10⁻² umol/ml; MIC [28]: 543 µM (≈ 230 µg/mL); MIC [29]: 395 µM (≈ 168 µg/mL); MIC [30]: 132 µM (≈ 56 µg/mL); MBC99.5 [31]: 79 ×10⁻² umol/ml; MIC [32]: 395 µM (≈ 168 µg/mL)
O=C(Cc1nsc2ccccc12)NN1C(=O)CSC1c1ccccc1Cl (stereo unspecified)	74 (≈ 29.9 µg/mL)	19.8	74.4	198 (≈ 80 µg/mL)	37.2	100 (≈ 40.4 µg/mL)	74.4	37.2	198 (≈ 80 µg/mL)	372 (≈ 150 µg/mL)	144 (≈ 58.2 µg/mL)	37.2	10	372 (≈ 150 µg/mL)	74.4	37.2	100 (≈ 40.4 µg/mL)	37.2	273 (≈ 110 µg/mL)	19.8	MIC [21]: 198 µM (≈ 80 µg/mL); MIC [22]: 198 µM (≈ 80 µg/mL); MBC99.5 [23]: 37.2 ×10⁻² umol/ml; MFC99.5 [24]: 10 ×10⁻² umol/ml; MIC [25]: 273 µM (≈ 110 µg/mL); MFC99.5 [26]: 19.8 ×10⁻² umol/ml; MFC99.5 [27]: 19.8 ×10⁻² umol/ml; MIC [28]: 198 µM (≈ 80 µg/mL); MIC [29]: 144 µM (≈ 58.2 µg/mL); MIC [30]: 74 µM (≈ 29.9 µg/mL); MBC99.5 [31]: 37.2 ×10⁻² umol/ml; MIC [32]: 372 µM (≈ 150 µg/mL)
